In patent US20230270753A1, “COMBINATIONS OF GABAA ALPHA 5 AGONISTS AND SV2A INHIBITORS AND METHODS OF USING IN THE TREATMENT OF COGNITIVE IMPAIRMENT” (AGENEBIO, INC., priority 2020, published 2023):
Entries after “also recorded” stand apart in the source; their conditions may differ. Like-named read-outs stand apart in the source and are kept apart here.

Experiments:
MAM-treated rats = settings: cited from earlier work
[1] = test system: Aged-Impaired rats (AI rats); assay: Radial Arm Maze task, 2-hr delay, acute brivaracetam or seletracetam (Example 4); type: in vivo, rat; settings: doses 0.0625-4 mg/kg i.p., 30-40 min prior to test; repeated measures ANOVA
Text: All rats were screened in a standardized assessment of spatial cognition prior to the studies with experimental treatments. That background assessment used a well-established Morris Water Maze protocol. The MWM protocol was substantially the same as the one described in Example 1. See, also, Gallagher et al., Behav. Neurosci. 107:618-626, (1993). Briefly, the rats were trained for eight days (three trials per day) to locate a camouflaged escape platform that remained at the same location throughout training in a water maze. Every sixth trial consisted of a probe trial (free swim with no escape platform) that served to assess the development of a spatially localized search for the escape platform. During these probe trials, a learning index was generated from the proximity of the rat to the escape platform and was used to define impairment in the aged rats. The learning index is the sum of weighted proximity scores obtained during probe trials, with low scores reflecting a search near the escape platform and high scores reflecting searches farther away from the platform (Gallagher et al, 1993). Cue training (visible escape platform) occurred on the last day of training to test for sensorimotor and motivational factors independent of spatial learning. […]

[2] = test system: memory-impaired aged rats; assay: Water maze after chronic brivaracetam by osmotic mini-pump (Example 4); type: in vivo, rat; settings: brivaracetam 2 mg/kg/day by osmotic mini-pump, 14 days, probe test
Experimental: The radial arm maze experiments used acute administration of seletracetam (0-4 mg/kg), brivaracetam (0-4 mg/kg), or saline vehicle given by intraperitoneal injection (in a volume of 1 ml/kg) 30-40 min prior to test sessions.
Rats were trained and tested in a novel water maze environment to assess the effect of drug treatment. The water maze used here was housed in a different building and was surrounded by curtains with a novel set of patterns relative to the maze used for initial assessment of cognitive status. The training protocol consisted of 6 trials per day for 2 days to locate a submerged escape platform. On each trial, a rat was released in the maze from one of four equally spaced starting positions around the perimeter of the pool. The starting position varied from trial to trial. […] The rat was then removed from the platform and placed in a holding cage for another 40 s before the next trial. Approximately 24 hr after the last training trial, a probe test in the absence of the escape platform was given to assess spatial memory.

[3] = Dynamic vapor sorption (DVS); type: physicochemical; settings: for hygroscopicity class: DVS isotherm; for form of the material recovered from the DVS experiment by XRPD: post DVS
Experimental: Dynamic vapor sorption data was collected on a Surface Measurement System DVS Intrinsic instrument. The samples were not dried prior to analysis. Sorption and desorption data were collected over a range from 5% to 95% RH in 10% RH increments under a nitrogen purge. The equilibrium criteria used for the analyses were 0.001 dm/dt weight change in 5 minutes with a minimum step time of 30 minutes and maximum equilibration time of 180 minutes with a 3-minute data logging interval. Data were not corrected for the initial moisture content of the sample. The samples were identified as having low, limited or significant hygroscopicity based on the definitions in the below table.

[4] = type: physicochemical; settings: solvent-mediated slurries, ambient temperature (Form E also 55° C. and 77° C.)
Experimental: Interconversion experiments were performed to identify the most thermodynamically stable anhydrous form of Compound 1 (Table 19). […] The choice of solvent affects the kinetics of polymorph conversion and not the thermodynamic relationship between polymorphic forms.
Various combinations of Forms B, E, F, and Material D were slurried with Form A at ambient and elevated temperatures (for experiments involving Form E). Different solvent systems were used and included a variety of water activities. Saturated solutions were generated and then added to the mixtures composed of approximately equivalent quantities of the forms. The mixtures were slurried for a particular duration of time and the solids harvested and analyzed by XRPD.

[5] = Differential scanning calorimetry / thermogravimetry; type: physicochemical; settings: DSC 10° C./min
Experimental: DSC was performed using a Mettler-Toledo DSC3+ differential scanning calorimeter. A tau lag adjustment is performed with indium, tin, and zinc. The temperature and enthalpy are adjusted with octane, phenyl salicylate, indium, tin and zinc. The adjustment is then verified with octane, phenyl salicylate, indium, tin, and zinc. The sample was placed into a hermetically sealed aluminum DSC pan, the weight was accurately recorded, and the sample was inserted into the DSC cell. A weighed aluminum pan configured as the sample pan was placed on the reference side of the cell. The pan lid was pierced prior to sample analysis. The samples were analyzed from −25° C. to 250° C. at 10° C./min.
Thermogravimetric analyses were performed using a Mettler-Toledo TGA/DSC3+ analyzer. Temperature calibration was performed using calcium oxalate, indium, tin, and zinc. The sample was placed in an aluminum pan. The pan was hermetically sealed, the lid was pierced, and the pan was then inserted into the TG furnace. A weighed aluminum pan configured as the sample pan was placed on the reference platform. The furnace was heated under nitrogen. Samples were analyzed from 25° C. to 350° C. at 10° C./min.

[6] = type: physicochemical
Experimental: XRPD patterns were collected with a PANalytical X'Pert PRO MPD or a PANalytical Empyrean diffractometer using an incident beam of Cu radiation produced using an Optix long, fine-focus source. An elliptically graded multilayer mirror was used to focus Cu Kα X-rays through the specimen and onto the detector. Prior to the analysis, a silicon specimen (NIST SRM 640e) was analyzed to verify the observed position of the Si 111 peak is consistent with the NIST-certified position. A specimen of the sample was sandwiched between 3-μm-thick films and analyzed in transmission geometry. A beam-stop, short antiscatter extension, and antiscatter knife edge were used to minimize the background generated by air. Soller slits for the incident and diffracted beams were used to minimize broadening from axial divergence. Diffraction patterns were collected using a scanning position-sensitive detector (X'Celerator) located 240 mm from the specimen and Data Collector software v. 5.5.

C#Cc1ccc2c(c1)C(c1ccccc1F)=N[C@H](C)c1c(C(=O)OCC)ncn1-2 [SH-053-2′F—R—CH3]
number of spontaneously active DA neurons in the ventral tegmental area (VTA) (MAM-treated rats; MAM rats, administered systemically or infused into the ventral HPC): reduces the number of spontaneously active DA neurons
locomotor response to amphetamine (MAM-treated rats; MAM-treated rats): is reduced

NC1=N[C@H](O)[C@H]2[C@H]3O[C@]4(O)O[C@@H]([C@@H](O)[C@@]2(N1)[C@@H]4O)[C@]3(O)CO [tetrodotoxin]
DA neuron population activity (MAM-treated rats; rat, in vivo): completely reversed the elevated DA neuron population activity
amphetamine-induced locomotor behavior (MAM-treated rats; rat, in vivo): normalized the augmented amphetamine-induced locomotor behavior

CC[C@@H](C(N)=O)N1C[C@H](C=C(F)F)CC1=O [seletracetam, (2S)-2-[(4S)-4-(2,2-difluoroethenyl)-2-oxopyrrolidin-1-yl]butanamide]
number of errors in the retention phase after the 2-hr delay [1]: significant effect as a function of dose

CCC[C@@H]1CC(=O)N([C@@H](CC)C(N)=O)C1 [brivaracetam, (2S)-2-[(4R)-2-oxo-4-propylpyrrolidin-1-yl]butanamide]
number of errors in the retention phase after the 2-hr delay [1]: significant effect as a function of dose
time in the target annulus vs vehicle-treated rats [2]: significantly more time in the target annulus
time in the target quadrant vs vehicle-treated rats [2]: significantly more time in the target quadrant
spatial bias for the target quadrant compared to the other control quadrants ([2]; n=3/group): significant spatial bias

COCc1nnc2n1Cc1c(C#Cc3cnc(OC)s3)ncn1-c1ccc(Cl)cc1-2 [Form A]
hygroscopicity class ([3]; 5% to 95% RH): limited hygroscopicity; also recorded: low hygroscopicity
weight change through the sorption/desorption cycle ([3]; DVS, 5% to 95% RH): ~0.3%
form of the material recovered from the DVS experiment by XRPD [3]: identified as the same as the starting material
relative thermodynamic stability between crystalline forms [4]: more thermodynamically stable than Form B and Material D at ambient temperature and Form E at ambient temperature, 55° C., and 77 °C
relative thermodynamic stability between crystalline forms ([4]; listed as Form A of Compound 1): superior stability

COCc1nnc2n1Cc1c(C#Cc3cnc(OC)s3)ncn1-c1ccc(Cl)cc1-2 [Form B]
onset of DSC exotherm due to decomposition [5]: about 190 °C
relative thermodynamic stability between crystalline forms [4]: metastable relative to Form A

COCc1nnc2n1Cc1c(C#Cc3cnc(OC)s3)ncn1-c1ccc(Cl)cc1-2 [Form C]
onset of DSC exotherm due to decomposition [5]: 190 °C
stability of the form on ambient storage ([6]; 9 weeks under ambient conditions): remain unchanged
stability of the form on heating ([6]; overnight exposure to 80° C.): desolvate to Form B

COCc1nnc2n1Cc1c(C#Cc3cnc(OC)s3)ncn1-c1ccc(Cl)cc1-2 [Form F]
hygroscopicity class ([3]; 5% to 95% RH): limited hygroscopicity
weight gain on sorption ([3]; DVS, 5-95% RH): 1.8%
weight loss upon desorption ([3]; DVS, with significant hysteresis): 1.5%
form of the material recovered from the DVS experiment by XRPD [3]: still Form F
onset of DSC exotherm due to decomposition [5]: above 120 °C
stability of the form under vacuum ([6]; 5 days under vacuum at ambient temperature): remain unchanged

COCc1nnc2n1Cc1c(C#Cc3cnc(OC)s3)ncn1-c1ccc(Cl)cc1-2 [Material D]
relative thermodynamic stability between crystalline forms [4]: metastable relative to Form A
stability of the form on ambient storage ([6]; 7 weeks of ambient storage, mixture with Form A): Material D still remained

COCc1nnc2n1Cc1c(C#Cc3cnc(OC)s3)ncn1-c1ccc(Cl)cc1-2 [Form E]
relative thermodynamic stability between crystalline forms [4]: metastable relative to Form A
